Results taken from PMC12339935 (Scientific Reports, 2025).
In brackets after ≈: the same amount, converted by molar mass.

Tests used:
[1] = tested on: Bacillus cereus ATCC 11778; assay: Antibacterial optical density microplate assay, B. cereus; type: cell-based; conditions: for MIC: Bacillus cereus, ATCC11778, read-out: Anti-Bacillus cereus (MIC, µg/ml); for Anti-Bacillus cereus (MIC, µg/ml): B. cereus ATCC 11778, maximum tested concentration 50 µg/ml
[2] = tested on: Staphylococcus aureus ATCC 29213; assay: Antibacterial optical density microplate assay, S. aureus; type: cell-based; conditions: ATCC29213, read-out: Anti-Staphylococcus aureus (MIC, µg/ml)
S. aureus = conditions: literature value; cited from earlier work
Mycobacterium bovis = conditions: cited from earlier work
Escherichia coli = conditions: literature value; cited from earlier work
in vitro [3] = conditions: human (MCF-7, NCI-H187); African green monkey (Vero)
[4] = tested on: MCF-7 (human breast cancer) cells; conditions: maximum tested concentration 50 µg/ml
[5] = tested on: NCI-H187 (human small-cell lung cancer) cells; conditions: maximum tested concentration 50 µg/ml
Vero cells = conditions: non-cancerous, maximum tested concentration 50 µg/ml
in vitro [6] = conditions: human
in vitro [7] = conditions: human; remark: listed apart in the source

Structure (SMILES)	MIC [1] [µg/mL]	MIC [2] [µg/mL]	Anti-Bacillus cereus (MIC, µg/ml) [1]	Cytotoxicity (IC50, µM) MCF-7 [4]	Cytotoxicity (IC50, µM) Vero (Vero cells)	further results
CC(=O)Nc1c2sscc-2n(C)c1=O [Compound 1, thiolutin]	1.56 (≈ 6.83 µM)	3.13 (≈ 13.7 µM)	–	–	–	MIC against S. aureus (S. aureus): 3.125 µg/mL (≈ 13.7 µM); MIC against Mycobacterium bovis (Mycobacterium bovis): 0.313 µg/mL (≈ 1.37 µM); MIC against Escherichia coli (Escherichia coli): 6.25 µg/mL (≈ 27.4 µM); IC50 (in vitro [3]): 350 to 5610 nM
Nc1cccc2c(=O)[nH]c(=O)oc12 [Compound 3, 8-amino-2 H-benz[e][1,3]oxazine-2,4(3 H)-dione]	–	–	Inactive	Inactive	Inactive	Cytotoxicity (IC50, µM) NCI-H187 [5]: Inactive
NC(=O)c1cccc(O)c1O [Compound 5, 2,3-dihydroxybenzamide]	–	–	Inactive	Inactive	Inactive	IC50 (in vitro [6]): 33.8 µM
COc1cccc(C(N)=O)c1O [Compound 6, 2-hydroxy-3-methoxybenzamide]	–	–	Inactive	Inactive	Inactive	Cytotoxicity (IC50, µM) NCI-H187 [5]: Inactive
Cc1c2ccncc2c(C)c2c1[nH]c1ccccc12 [Ellipticine, reference compound]	–	–	–	–	–	IC50 (in vitro [6]): 11.8 µM
CO[C@H]1/C=C/O[C@@]2(C)Oc3c(C)c(O)c4c(O)c(c(/C=N/N5CCN(C)CC5)c(O)c4c3C2=O)NC(=O)/C(C)=C\C=C\[C@H](C)[C@H](O)[C@@H](C)[C@@H](O)[C@@H](C)[C@H](OC(C)=O)[C@@H]1C [Rifampicin, reference compound]	0.16 to 0.63 (≈ 0.194 to 0.766 µM)	0.04 to 0.56 (≈ 0.0486 to 0.68 µM)	–	–	–	–
CC/C(=C(\c1ccccc1)c1ccc(OCCN(C)C)cc1)c1ccccc1 [Tamoxifen]	–	–	–	–	–	IC50 (in vitro [7]): 43.4 µM
CN[C@H](CC(C)C)C(=O)N[C@H]1C(=O)N[C@@H](CC(N)=O)C(=O)N[C@H]2C(=O)N[C@H]3C(=O)N[C@H](C(=O)N[C@H](C(=O)O)c4cc(O)cc(O)c4-c4cc3ccc4O)[C@H](O)c3ccc(c(Cl)c3)Oc3cc2cc(c3O[C@@H]2O[C@H](CO)[C@@H](O)[C@H](O)[C@H]2O[C@H]2C[C@](C)(N)[C@H](O)[C@H](C)O2)Oc2ccc(cc2Cl)[C@H]1O [Vancomycin, reference compound]	1 to 2 (≈ 0.69 to 1.38 µM)	4 (≈ 2.76 µM)	–	–	–	–
